Results published in publication PMC12027839, “Aging-Associated Amyloid-β Plaques and Neuroinflammation in Bottlenose Dolphins (Tursiops truncatus) and Novel Cognitive Health-Supporting Roles of Pentadecanoic Acid (C15:0)” (International Journal of Molecular Sciences, 2025).

Columns and labels:
[1] = biological target: T1, Fatty Acid Amide Hydrolase (FAAH) (Homo sapiens, UniProt O00519); test: Enzyme assay with human recombinant FAAH (Sf21 cells), AMC arachidonoyl amide substrate, spectrofluorimetric, […] concentrations; assay type: biochemical
T1 sequence (O00519 whole entry): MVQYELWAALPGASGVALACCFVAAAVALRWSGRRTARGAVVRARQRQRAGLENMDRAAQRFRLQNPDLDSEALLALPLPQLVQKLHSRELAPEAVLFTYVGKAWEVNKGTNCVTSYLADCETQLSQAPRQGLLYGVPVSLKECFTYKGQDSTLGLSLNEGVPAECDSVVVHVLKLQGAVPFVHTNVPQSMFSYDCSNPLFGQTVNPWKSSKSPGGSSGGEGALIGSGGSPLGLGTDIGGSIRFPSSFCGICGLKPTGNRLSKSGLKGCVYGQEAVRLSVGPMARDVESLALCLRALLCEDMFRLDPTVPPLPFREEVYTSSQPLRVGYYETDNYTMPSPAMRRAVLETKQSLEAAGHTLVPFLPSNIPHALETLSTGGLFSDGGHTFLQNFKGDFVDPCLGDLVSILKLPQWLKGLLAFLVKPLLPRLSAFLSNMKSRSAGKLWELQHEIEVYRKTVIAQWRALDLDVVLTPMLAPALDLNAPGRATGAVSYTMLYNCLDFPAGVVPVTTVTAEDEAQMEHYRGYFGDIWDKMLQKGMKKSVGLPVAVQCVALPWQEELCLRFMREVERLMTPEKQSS

Monoamine Oxidase MAO-A = biological target: T2, Monoamine Oxidase MAO-A (Homo sapiens, UniProt P21397); test: biochemical; parameters: Eurofins Alzheimer's MoA LeadHunter enzyme assays; percent inhibition of enzyme activity, mean of duplicates; conditions: Ligand or Substrate=Kynuramine
T2 construct: gene MAOA
Protocol: (§1) Standardized enzyme and radioligand binding assays were used by an independent third party (Eurofins Discovery, Taiwan) to evaluate C15:0 across ten concentrations and up to 50 µM for activities as part of the Eurofins Discovery Alzheimer’s MoA LeadHunter Panel. Methods employed in this study were adapted from the scientific literature to maximize reliability and reproducibility. Reference standards were run as an integral part of each assay to ensure the validity of the results obtained. IC50 values were determined by a non-linear, least squares regression analysis using MathIQTM (ID Business Solutions Ltd., Woking, UK). This study included evaluated inhibition of the following targets by C15:0 using enzyme assays (Cholinesterase, Acetyl, ACES; Cholinesterase, Butyryl, CHLE; Peptidase, CTSB (Cathepsin B); Cyclooxygenase COX-1; Cyclooxygenase COX-2; Myeloperoxidase; IDO1; Monoamine Oxidase MAO-A; Monoamine Oxidase MAO-B; Peptidase, Endothelin Converting Enzyme-1 (ECE-1); Peptidase, Metalloproteinase, Neutral Endopeptidase; Peptidase, BACE1 (beta-Secretase); Protein Tyrosine Kinase, Fyn; Protein Serine/Threonine Kinase, GSK3B; Protein Serine/Threonine Kinase, MAPK14 (p38alpha); Protein Tyrosine Phosphatase, DUSP22; Fatty Acid Amide Hydrolase (FAAH); Nitric Oxide Synthetase, Inducible (iNOS); Catechol-O-Methyl Transferase (COMT); and Lipoxygenase 15-LOX-2) and radioligand binding assays (Adenosine A2A; Transporter, GABA; GABAA, Ro-15-1788, Hippocampus; Glutamate, AMPA; Glutamate, NMDA, MK-801; Glutamate, NMDA, Polyamine; Glutamate, Metabotropic, mGlu5; Histamine H3; Chemokine CX3CR1; Muscarinic M1; Nicotinic Acetylcholine alpha7, Methyllycaconitine; Serotonin (5-Hydroxytryptamine) 5-HT1A, WAY-100635; Serotonin (5-Hydroxytryptamine) 5-HT4B; Serotonin (5-Hydroxytryptamine) 5-HT6; Sodium Channel, Site 1; Somatostatin sst4; Sigma 2; Sigma1; Platelet Activating Factor (PAF)). Biochemical assay results were presented as the percent inhibition of specific binding or activity. […] Primary screening was conducted in duplicate with semi-quantitative data (e.g., estimated IC50). Significant responses (≥50% inhibition) were noted.

Lipoxygenase 15-LOX-2 = biological target: T3, Lipoxygenase 15-LOX-2 (Homo sapiens, UniProt O15296); test: biochemical; parameters: Eurofins Alzheimer's MoA LeadHunter enzyme assays; percent inhibition of enzyme activity, mean of duplicates; conditions: Ligand or Substrate=AMC arachidonoyl amide
T3 construct: gene ALOX15B
Protocol: as §1

[2] = biological target: Protein Tyrosine Kinase, Fyn (Homo sapiens, UniProt P06241); test: biochemical; parameters: Eurofins Alzheimer's MoA LeadHunter enzyme assays; percent inhibition of enzyme activity, mean of duplicates; conditions: Ligand or Substrate=Poly(Glu:Tyr)
Protocol: as §1

[3] = biological target: Peptidase, BACE1 (beta-Secretase) (Homo sapiens, UniProt P56817); test: biochemical; parameters: Eurofins Alzheimer's MoA LeadHunter enzyme assays; percent inhibition of enzyme activity, mean of duplicates; conditions: Ligand or Substrate=MOCAc-S-E-V-N-L-D-A-E-F-R-K(Dnp)-R-R-NH2
Protocol: as §1

Myeloperoxidase = biological target: T4, Myeloperoxidase (Homo sapiens, UniProt P05164); test: biochemical; parameters: Eurofins Alzheimer's MoA LeadHunter enzyme assays; percent inhibition of enzyme activity, mean of duplicates; conditions: Ligand or Substrate=Guaiacol
T4 construct: gene MPO
Protocol: as §1

Monoamine Oxidase MAO-B = biological target: T5, Monoamine Oxidase MAO-B (Homo sapiens, UniProt P27338); test: biochemical; parameters: Eurofins Alzheimer's MoA LeadHunter enzyme assays; percent inhibition of enzyme activity, mean of duplicates; conditions: Ligand or Substrate=Kynuramine
T5 construct: gene MAOB
Protocol: as §1

Cyclooxygenase COX-2 = biological target: T6, Cyclooxygenase COX-2 (Homo sapiens, UniProt P35354); test: biochemical; parameters: Eurofins Alzheimer's MoA LeadHunter enzyme assays; percent inhibition of enzyme activity, mean of duplicates; conditions: Ligand or Substrate=Arachidonic acid
T6 construct: gene PTGS2
Protocol: as §1

[4] = biological target: Peptidase, CTSB (Cathepsin B) (Homo sapiens, UniProt P07858); test: biochemical; parameters: Eurofins Alzheimer's MoA LeadHunter enzyme assays; percent inhibition of enzyme activity, mean of duplicates; conditions: Ligand or Substrate=Boc-Leu-Arg-Arg-AMC
Protocol: as §1

[5] = biological target: T7, Cholinesterase, Butyryl, CHLE (Homo sapiens, UniProt P06276); test: biochemical; parameters: Eurofins Alzheimer's MoA LeadHunter enzyme assays; percent inhibition of enzyme activity, mean of duplicates; conditions: Ligand or Substrate=S-Butyrylthiocholine
T7 construct: gene BCHE
Protocol: as §1

[6] = biological target: T8, Cholinesterase, Acetyl, ACES (Homo sapiens, UniProt P22303); test: biochemical; parameters: Eurofins Alzheimer's MoA LeadHunter enzyme assays; percent inhibition of enzyme activity, mean of duplicates; conditions: Ligand or Substrate=Acetylthiocholine
T8 construct: gene ACHE
Protocol: as §1

[7] = biological target: T9, Peptidase, Metalloproteinase, Neutral Endopeptidase (Homo sapiens, UniProt P08473); test: biochemical; parameters: Eurofins Alzheimer's MoA LeadHunter enzyme assays; percent inhibition of enzyme activity, mean of duplicates; conditions: Ligand or Substrate=Mca-R-P-P-G-F-S-A-F-K(Dnp)-OH
T9 construct: gene MME
T9 sequence (P08473 whole entry): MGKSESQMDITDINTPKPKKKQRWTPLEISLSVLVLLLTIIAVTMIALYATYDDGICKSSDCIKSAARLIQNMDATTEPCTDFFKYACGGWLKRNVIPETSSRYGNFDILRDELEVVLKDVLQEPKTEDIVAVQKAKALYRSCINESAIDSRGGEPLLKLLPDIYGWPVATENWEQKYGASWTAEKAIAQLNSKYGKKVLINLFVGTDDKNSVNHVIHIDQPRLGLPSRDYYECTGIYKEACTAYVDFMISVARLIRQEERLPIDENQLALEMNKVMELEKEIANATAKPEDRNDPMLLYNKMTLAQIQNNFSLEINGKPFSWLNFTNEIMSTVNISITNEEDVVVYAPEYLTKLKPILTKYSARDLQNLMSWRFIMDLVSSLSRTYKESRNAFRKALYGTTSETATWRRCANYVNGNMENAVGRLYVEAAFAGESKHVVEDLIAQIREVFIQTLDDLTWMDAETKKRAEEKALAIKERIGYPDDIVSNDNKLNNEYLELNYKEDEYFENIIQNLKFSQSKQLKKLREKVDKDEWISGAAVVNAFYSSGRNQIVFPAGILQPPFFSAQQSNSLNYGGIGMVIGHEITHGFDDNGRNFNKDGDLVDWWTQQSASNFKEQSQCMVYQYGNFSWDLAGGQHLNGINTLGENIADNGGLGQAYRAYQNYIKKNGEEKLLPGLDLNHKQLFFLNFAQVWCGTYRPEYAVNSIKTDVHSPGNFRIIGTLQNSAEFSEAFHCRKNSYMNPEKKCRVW
Protocol: as §1

[8] = biological target: T1, Fatty Acid Amide Hydrolase (FAAH); test: biochemical; parameters: Eurofins Alzheimer's MoA LeadHunter enzyme assays; percent inhibition of enzyme activity, mean of duplicates; conditions: Ligand or Substrate=AMC arachidonoyl amide
Protocol: as §1

[9] = biological target: Protein Serine/Threonine Kinase, MAPK14 (p38alpha) (Homo sapiens, UniProt Q16539); test: biochemical; parameters: Eurofins Alzheimer's MoA LeadHunter enzyme assays; percent inhibition of enzyme activity, mean of duplicates; conditions: Ligand or Substrate=Myelin Basic Protein (MBP)
Sequence of Protein Serine/Threonine Kinase, MAPK14 (p38alpha) (Q16539 whole entry): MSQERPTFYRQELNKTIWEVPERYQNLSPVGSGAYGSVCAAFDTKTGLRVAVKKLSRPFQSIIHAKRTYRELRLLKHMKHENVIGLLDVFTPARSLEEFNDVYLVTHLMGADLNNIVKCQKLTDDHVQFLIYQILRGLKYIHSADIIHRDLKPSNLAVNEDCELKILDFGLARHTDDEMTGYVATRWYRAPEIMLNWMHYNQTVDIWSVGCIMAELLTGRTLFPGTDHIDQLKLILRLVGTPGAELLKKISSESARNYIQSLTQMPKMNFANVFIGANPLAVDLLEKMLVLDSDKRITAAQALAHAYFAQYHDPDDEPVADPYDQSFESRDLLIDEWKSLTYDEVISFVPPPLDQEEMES
Protocol: as §1

[10] = biological target: Catechol-O-Methyl Transferase (COMT) (Sus scrofa, UniProt Q99028); test: biochemical; parameters: Eurofins Alzheimer's MoA LeadHunter enzyme assays; percent inhibition of enzyme activity, mean of duplicates; conditions: Ligand or Substrate=Esculetin
Protocol: as §1

Cyclooxygenase COX-1 = biological target: T10, Cyclooxygenase COX-1 (Homo sapiens, UniProt P23219); test: biochemical; parameters: Eurofins Alzheimer's MoA LeadHunter enzyme assays; percent inhibition of enzyme activity, mean of duplicates; conditions: Ligand or Substrate=Arachidonic acid
T10 construct: gene PTGS1
Protocol: as §1

[11] = biological target: T11, Peptidase, Endothelin Converting Enzyme-1 (ECE-1) (Homo sapiens, UniProt P42892); test: biochemical; parameters: Eurofins Alzheimer's MoA LeadHunter enzyme assays; percent inhibition of enzyme activity, mean of duplicates; conditions: Ligand or Substrate=Mca-[…]Dnp)
T11 construct: gene ECE1
T11 sequence (P42892 whole entry): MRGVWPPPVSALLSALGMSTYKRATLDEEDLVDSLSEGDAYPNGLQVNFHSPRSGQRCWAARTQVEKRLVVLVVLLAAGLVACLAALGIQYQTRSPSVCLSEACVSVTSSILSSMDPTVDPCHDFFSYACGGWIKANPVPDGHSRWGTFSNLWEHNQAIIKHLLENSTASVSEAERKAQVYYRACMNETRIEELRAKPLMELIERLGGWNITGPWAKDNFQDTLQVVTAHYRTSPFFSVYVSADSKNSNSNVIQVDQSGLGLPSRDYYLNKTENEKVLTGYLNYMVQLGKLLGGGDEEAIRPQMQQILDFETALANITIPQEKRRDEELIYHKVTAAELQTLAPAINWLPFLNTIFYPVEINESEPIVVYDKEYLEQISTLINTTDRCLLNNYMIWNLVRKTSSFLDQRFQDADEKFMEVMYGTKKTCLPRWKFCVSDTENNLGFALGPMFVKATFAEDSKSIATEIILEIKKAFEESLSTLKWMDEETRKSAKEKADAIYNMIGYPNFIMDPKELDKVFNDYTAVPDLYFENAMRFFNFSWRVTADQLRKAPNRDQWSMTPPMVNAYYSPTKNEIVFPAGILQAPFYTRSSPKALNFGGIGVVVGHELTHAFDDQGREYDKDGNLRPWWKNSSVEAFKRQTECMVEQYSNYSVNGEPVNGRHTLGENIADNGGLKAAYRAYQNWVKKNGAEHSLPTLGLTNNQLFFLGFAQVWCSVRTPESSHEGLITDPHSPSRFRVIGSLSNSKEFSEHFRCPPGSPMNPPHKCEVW
Protocol: as §1

[12] = biological target: Protein Tyrosine Phosphatase, DUSP22 (Homo sapiens, UniProt Q9NRW4); test: biochemical; parameters: Eurofins Alzheimer's MoA LeadHunter enzyme assays; percent inhibition of enzyme activity, mean of duplicates; conditions: Ligand or Substrate=DiFMUP
Sequence of Protein Tyrosine Phosphatase, DUSP22 (Q9NRW4 whole entry): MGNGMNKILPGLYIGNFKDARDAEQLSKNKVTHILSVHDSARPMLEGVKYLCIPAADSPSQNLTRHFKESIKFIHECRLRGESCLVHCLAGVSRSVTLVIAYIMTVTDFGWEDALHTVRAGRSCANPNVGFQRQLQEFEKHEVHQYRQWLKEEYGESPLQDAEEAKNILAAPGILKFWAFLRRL
Protocol: as §1

IDO1 = IDO1 (Homo sapiens, UniProt P14902); test: biochemical; parameters: Eurofins Alzheimer's MoA LeadHunter enzyme assays; percent inhibition of enzyme activity, mean of duplicates; conditions: Ligand or Substrate=L-tryptophan (L-Trp)
Sequence of IDO1 (P14902 whole entry): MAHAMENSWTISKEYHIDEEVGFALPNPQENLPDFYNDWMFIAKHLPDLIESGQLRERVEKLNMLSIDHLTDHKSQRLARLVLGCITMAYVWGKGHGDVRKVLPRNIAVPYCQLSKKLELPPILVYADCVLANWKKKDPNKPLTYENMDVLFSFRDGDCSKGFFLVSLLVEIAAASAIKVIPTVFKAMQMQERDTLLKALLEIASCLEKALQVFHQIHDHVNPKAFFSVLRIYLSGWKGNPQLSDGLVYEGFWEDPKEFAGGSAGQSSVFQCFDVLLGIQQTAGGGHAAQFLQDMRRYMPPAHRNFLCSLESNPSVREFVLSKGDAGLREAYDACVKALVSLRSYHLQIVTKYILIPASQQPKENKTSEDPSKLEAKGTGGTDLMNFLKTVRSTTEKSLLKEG
Protocol: as §1

[13] = biological target: Protein Serine/Threonine Kinase, GSK3B (Homo sapiens, UniProt P49841); test: biochemical; parameters: Eurofins Alzheimer's MoA LeadHunter enzyme assays; percent inhibition of enzyme activity, mean of duplicates; conditions: Ligand or Substrate=Phospho-glycogen synthase peptide-2
Protocol: as §1

[14] = biological target: T12, Monoamine oxidase B (MAO-B) (Homo sapiens, UniProt P27338); test: Enzyme assay with human recombinant MAO-B (insect cells), kynuramine substrate, spectrofluorimetric, […] concentrations; assay type: biochemical
T12 construct: gene MAOB
T12 sequence (P27338 2-520): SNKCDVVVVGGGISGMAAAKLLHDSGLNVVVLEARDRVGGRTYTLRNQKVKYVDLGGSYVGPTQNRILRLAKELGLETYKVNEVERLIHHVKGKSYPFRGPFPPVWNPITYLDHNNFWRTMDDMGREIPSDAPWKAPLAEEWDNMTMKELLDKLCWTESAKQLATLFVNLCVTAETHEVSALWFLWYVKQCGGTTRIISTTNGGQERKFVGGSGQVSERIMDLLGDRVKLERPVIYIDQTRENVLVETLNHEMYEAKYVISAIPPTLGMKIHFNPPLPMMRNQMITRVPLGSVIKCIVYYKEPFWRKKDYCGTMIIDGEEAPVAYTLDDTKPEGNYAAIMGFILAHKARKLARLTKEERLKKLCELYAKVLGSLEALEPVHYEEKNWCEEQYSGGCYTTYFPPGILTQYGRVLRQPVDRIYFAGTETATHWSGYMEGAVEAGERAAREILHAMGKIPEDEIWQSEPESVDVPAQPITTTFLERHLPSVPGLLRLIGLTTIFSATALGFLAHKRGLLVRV

[15] = biological target: T13, Serotonin (5-Hydroxytryptamine) 5-HT6 (Homo sapiens, UniProt P50406); test: biochemical; parameters: Eurofins Alzheimer's MoA LeadHunter radioligand binding assays; percent inhibition of specific binding, mean of duplicates; conditions: Ligand or Substrate=[3H]Lysergic acid diethylamide (LSD)
T13 construct: gene HTR6
Protocol: as §1

[16] = biological target: T14, Serotonin (5-Hydroxytryptamine) 5-HT4B (Homo sapiens, UniProt Q13639); test: biochemical; parameters: Eurofins Alzheimer's MoA LeadHunter radioligand binding assays; percent inhibition of specific binding, mean of duplicates; conditions: Ligand or Substrate=[3H]GR-113808
T14 construct: gene HTR4; isoform 5-HT4B
Protocol: as §1

Histamine H3 = biological target: T15, Histamine H3 (Homo sapiens, UniProt Q9Y5N1); test: biochemical; parameters: Eurofins Alzheimer's MoA LeadHunter radioligand binding assays; percent inhibition of specific binding, mean of duplicates; conditions: Ligand or Substrate=[3H]N-alpha-Methylhistamine (NAMH)
T15 construct: gene HRH3
Protocol: as §1

Muscarinic M1 = biological target: T16, Muscarinic M1 (Homo sapiens, UniProt P11229); test: biochemical; parameters: Eurofins Alzheimer's MoA LeadHunter radioligand binding assays; percent inhibition of specific binding, mean of duplicates; conditions: Ligand or Substrate=[3H]N-Methylscopolamine
T16 construct: gene CHRM1
Protocol: as §1

Sigma1 = biological target: T17, Sigma1 (Homo sapiens, UniProt Q99720); test: biochemical; parameters: Eurofins Alzheimer's MoA LeadHunter radioligand binding assays; percent inhibition of specific binding, mean of duplicates; conditions: Ligand or Substrate=[3H]Pentazocine
T17 construct: gene SIGMAR1
T17 sequence (Q99720 whole entry): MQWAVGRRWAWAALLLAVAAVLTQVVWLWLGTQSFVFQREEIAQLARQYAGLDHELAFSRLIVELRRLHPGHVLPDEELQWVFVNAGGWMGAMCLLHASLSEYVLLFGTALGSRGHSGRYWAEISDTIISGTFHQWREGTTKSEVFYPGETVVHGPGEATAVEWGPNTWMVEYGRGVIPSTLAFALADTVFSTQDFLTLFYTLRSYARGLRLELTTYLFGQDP
Protocol: as §1

Somatostatin sst4 = biological target: T18, Somatostatin sst4 (Homo sapiens, UniProt P31391); test: biochemical; parameters: Eurofins Alzheimer's MoA LeadHunter radioligand binding assays; percent inhibition of specific binding, mean of duplicates; conditions: Ligand or Substrate=[125I]Tyr11-Somatostatin 14
T18 construct: gene SSTR4
Protocol: as §1

[17] = biological target: T19, Glutamate, Metabotropic, mGlu5 (Homo sapiens, UniProt P41594); test: biochemical; parameters: Eurofins Alzheimer's MoA LeadHunter radioligand binding assays; percent inhibition of specific binding, mean of duplicates; conditions: Ligand or Substrate=[3H]Quisqualic acid
T19 construct: gene GRM5
T19 sequence (P41594 whole entry): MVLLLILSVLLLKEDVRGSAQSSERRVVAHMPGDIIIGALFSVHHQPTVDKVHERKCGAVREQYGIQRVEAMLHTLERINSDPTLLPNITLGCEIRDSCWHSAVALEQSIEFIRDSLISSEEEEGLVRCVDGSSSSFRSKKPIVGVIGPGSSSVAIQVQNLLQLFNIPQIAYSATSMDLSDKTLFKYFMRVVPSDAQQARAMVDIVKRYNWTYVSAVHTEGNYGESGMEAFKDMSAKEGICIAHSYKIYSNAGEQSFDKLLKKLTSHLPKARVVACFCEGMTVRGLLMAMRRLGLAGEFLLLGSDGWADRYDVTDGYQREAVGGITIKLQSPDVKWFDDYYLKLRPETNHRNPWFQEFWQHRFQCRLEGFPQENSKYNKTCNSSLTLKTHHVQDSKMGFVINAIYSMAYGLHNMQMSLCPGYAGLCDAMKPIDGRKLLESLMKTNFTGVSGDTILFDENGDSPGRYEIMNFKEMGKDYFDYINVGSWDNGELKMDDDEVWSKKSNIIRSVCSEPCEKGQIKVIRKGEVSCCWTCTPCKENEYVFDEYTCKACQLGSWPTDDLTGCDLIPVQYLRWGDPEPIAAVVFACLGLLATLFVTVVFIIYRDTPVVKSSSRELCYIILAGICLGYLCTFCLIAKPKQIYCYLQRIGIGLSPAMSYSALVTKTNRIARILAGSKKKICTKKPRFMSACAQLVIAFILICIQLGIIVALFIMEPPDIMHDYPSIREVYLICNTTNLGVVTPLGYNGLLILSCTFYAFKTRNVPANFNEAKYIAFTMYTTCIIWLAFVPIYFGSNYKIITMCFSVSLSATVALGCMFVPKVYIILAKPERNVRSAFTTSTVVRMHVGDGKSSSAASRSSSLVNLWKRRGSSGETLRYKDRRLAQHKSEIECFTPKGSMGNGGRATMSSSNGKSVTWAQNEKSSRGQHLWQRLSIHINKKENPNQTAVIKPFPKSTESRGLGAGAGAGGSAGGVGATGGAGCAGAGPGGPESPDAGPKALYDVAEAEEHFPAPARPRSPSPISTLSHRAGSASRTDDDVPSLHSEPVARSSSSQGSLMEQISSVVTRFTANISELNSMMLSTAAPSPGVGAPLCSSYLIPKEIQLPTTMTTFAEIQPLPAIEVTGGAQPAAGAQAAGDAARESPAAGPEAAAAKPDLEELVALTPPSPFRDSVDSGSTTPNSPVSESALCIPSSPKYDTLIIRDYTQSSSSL
Protocol: as §1

Adenosine A2A = biological target: T20, Adenosine A2A (Homo sapiens, UniProt P29274); test: biochemical; parameters: Eurofins Alzheimer's MoA LeadHunter radioligand binding assays; percent inhibition of specific binding, mean of duplicates; conditions: Ligand or Substrate=[3H]CGS-21680
T20 construct: gene ADORA2A
Protocol: as §1

[18] = biological target: T21, Serotonin (5-Hydroxytryptamine) 5-HT1A, WAY-100635 (Homo sapiens, UniProt P08908); test: biochemical; parameters: Eurofins Alzheimer's MoA LeadHunter radioligand binding assays; percent inhibition of specific binding, mean of duplicates; conditions: Ligand or Substrate=[3H]WAY100635
T21 construct: gene HTR1A; WAY-100635
Protocol: as §1

[19] = biological target: T22, Nicotinic Acetylcholine alpha7, Methyllycaconitine (Rattus norvegicus, UniProt Q05941); test: biochemical; parameters: Eurofins Alzheimer's MoA LeadHunter radioligand binding assays; percent inhibition of specific binding, mean of duplicates; conditions: Ligand or Substrate=[3H]Methyllycaconitine
T22 construct: gene Chrna7; methyllycaconitine site
Protocol: as §1

Chemokine CX3CR1 = Chemokine CX3CR1 (Homo sapiens, UniProt P49238); test: biochemical; parameters: Eurofins Alzheimer's MoA LeadHunter radioligand binding assays; percent inhibition of specific binding, mean of duplicates; conditions: Ligand or Substrate=[125I]Fractalkine
Protocol: as §1

[20] = biological target: T23, Platelet Activating Factor (PAF) (Homo sapiens, UniProt P25105); test: biochemical; parameters: Eurofins Alzheimer's MoA LeadHunter radioligand binding assays; percent inhibition of specific binding, mean of duplicates; conditions: Ligand or Substrate=[3H]PAF
T23 construct: gene PTAFR
Protocol: as §1

## CCCCCCCCCCCCCCC(=O)O [C15:0, Pentadecanoic acid]
[1]
  IC50: 2.51 µM
Monoamine Oxidase MAO-A
  inhibition at 20 µM: 11.4%
Lipoxygenase 15-LOX-2
  inhibition at 20 µM: 8%
[2]
  inhibition at 20 µM: -16.2%
[3]
  inhibition at 20 µM: 2.4%
Myeloperoxidase
  inhibition at 20 µM: 44.8%
Monoamine Oxidase MAO-B
  inhibition at 20 µM: 64.7%
Cyclooxygenase COX-2
  inhibition at 20 µM: 5.3%
[4]
  inhibition at 20 µM: -35.2%
[5]
  inhibition at 20 µM: 2.5%
[6]
  inhibition at 20 µM: 44.7%
[7]
  inhibition at 20 µM: 2.1%
[8]
  inhibition at 20 µM: 70.3%
[9]
  inhibition at 20 µM: -14.8%
[10]
  inhibition at 20 µM: 1.5%
Cyclooxygenase COX-1
  inhibition at 20 µM: -17%
[11]
  inhibition at 20 µM: 7.1%
[12]
  inhibition at 20 µM: -28.1%
IDO1
  inhibition at 20 µM: 39.4%
[13]
  inhibition at 20 µM: 15%
[14]
  IC50: 19.4 µM
[15]
  inhibition at 20 µM: -16.1%
[16]
  inhibition at 20 µM: -1.7%
Histamine H3
  inhibition at 20 µM: 1.7%
Muscarinic M1
  inhibition at 20 µM: 9%
Sigma1
  inhibition at 20 µM: -18.6%
Somatostatin sst4
  inhibition at 20 µM: -4.4%
[17]
  inhibition at 20 µM: 0%
Adenosine A2A
  inhibition at 20 µM: 10.7%
[18]
  inhibition at 20 µM: 3.9%
[19]
  inhibition at 20 µM: -9.1%
Chemokine CX3CR1
  inhibition at 20 µM: 5.3%
[20]
  inhibition at 20 µM: -6.6%
